Here are results for 1 sequence from US20250312407A1, “PEPTIDE AND USE THEREOF” (AJINOMOTO CO., INC., priority 2019, published 2025).

Format in all cases: in vivo, mouse
The subject of one assay is male C57BL/6J mice. The assay can be described thus: Oral glucose tolerance test (OGTT). The note with it: 30 mg/kg oral. The protocol: The administration medium (0.5% methylcellulose; vehicle) or compound 1 (30 mg/kg) was orally administered to male C57BL/6J mice (7 weeks old) that had been fasted from 17 o'clock the day before, and 2 g/kg of glucose was orally administered by gavage 1 hr later. Blood was collected from the tail vein before administration, and 15, 30, 60, 120 and 180 min after administration, and the blood glucose level was measured.
The blood glucose level after glucose loading remained low in the compound 1 administration group from 30 min after loading and thereafter. The results of the area under curve (ΔAUC) of the blood glucose level profile calculated with the 0-minute value as the standard are shown in FIG. 2.

Assay [1] relates to ornithine/citrulline ratio. The assay can be described thus: Anti-fatigue action (plasma ornithine/citrulline ratio). As to conditions: 30 mg/kg by gavage, C57BL/6J mice, portal vein, 120 min after administration, vs vehicle group. The method, then: The administration medium (0.5% methylcellulose; vehicle) or compound 1 (30 mg/kg) was administered by gavage to male C57BL/6J mice (7 weeks old) that had been under fasting treatment overnight. Blood was collected from the portal vein 120 min after administration, and the plasma ornithine and citrulline concentrations were measured. The ornithine/citrulline ratio in plasma is known as a biomarker that increases during fatigue such as chronic fatigue syndrome and the like (e.g., Yamano E et al., “Index markers of chronic fatigue syndrome with dysfunction of TCA and urea cycles”, Scientific Reports, 2016 Oct. 11; 6:34990, doi: 10.1038/srep34990, which is incorporated herein by reference in its entirety).

The test system of a further assay is FGF21. Nature of the assay: FGF21 secretion promoting action (plasma FGF21 concentration). As to conditions: 30 mg/kg by gavage, C57BL/6J mice, portal vein, 120 min after administration, vs vehicle group. The protocol:
The administration medium (0.5% methylcellulose; vehicle) or compound 1 (30 mg/kg) was administered by gavage to male C57BL/6J mice (8 weeks old) that had been under fasting treatment for 6 hr. Blood was collected from the portal vein before administration and 120 min after administration, and the plasma FGF21 concentration was measured.

For assay [2], the system named is male KK-Ay mice. The assay can be described thus: Insulin tolerance test (ITT). The note with it: 30 mg/kg oral, insulin 0.5 U/kg s.c. 1 hr later, profile and ΔAUC vs vehicle group. The method, then:
The administration medium (0.5% methylcellulose; vehicle) or compound 1 (30 mg/kg) was orally administered to male KK-Ay mice (7 to 12 weeks old) that had been fasted from 17 o'clock the day before, and insulin (0.5 U/kg) was subcutaneously administered 1 hr later. Blood was collected from the tail vein before administration, and 15, 30, 60, 120 and 180 min after administration, and the blood glucose level was measured. The blood glucose level was also measured for compounds 2 to 6 by a similar method. The results of the area under curve (ΔAUC) of the blood glucose level profile calculated with the 0-minute value as the standard are shown in FIG. 3(b).

The subject of another assay is acetyl-L-carnitine. Nature of the assay: Anti-stress, neuroprotective action (plasma acetyl-L-carnitine after restraint stress). As to conditions: 30 mg/kg oral after 3 hr restraint stress, C57BL/6J mice, 120 min after administration, vs vehicle group. The source says:
Male C57BL/6J mice (9-week-old) that had been under fasting treatment overnight were housed in a restraint stress cage for mice, and allowed to stand for 3 hr. […] Acetyl-L-carnitine is an endogenous metabolite known to have an anti-stress and neuroprotective action (e.g., Nasca C et al., “L-acetylcarnitine causes rapid antidepressant effects through the epigenetic induction of mGlu2 receptors”, Proc. Natl. Acad. Sci. USA, 2013 Mar. 19; 110 (12): 4804-4809; and Kazak F et al., “Neuroprotective effects of acetyl-1-carnitine on lipopolysaccharide-induced neuroinflammation in mice: Involvement of brain-derived neurotrophic factor”, Neuroscience Letters, 2017 Sep. 29; 658:32-36, which are incorporated herein by reference in their entireties).

Assay [3] concerns male KK-Ay mice. Nature of the assay: Intestine permeability (plasma FD-4 after oral FITC-dextran). As to conditions: 100 mg/kg oral, vs vehicle group. The protocol: The administration medium (0.5% methylcellulose; vehicle) or compound 1 (100 mg/kg) was orally administered to male KK-Ay mice (11 weeks old) that had been fasted from 10 o'clock the day before, and FITC-dextran (FD-4) (300 mg/kg) was orally administered 1 hr later. Blood was collected from the tail vein 1 hr and 2 hr after FD-4 administration, and the plasma FD-4 concentration was measured.

Consider “LIVTQTMKGL (Designed peptide) [compound 1]”, for which, in the assay on male C57BL/6J mice (0-minute value as the standard, vs vehicle group), the “area under curve (ΔAUC) of the blood glucose level profile, OGTT” value is recorded as “low value as compared with the vehicle group”. The “blood glucose level after glucose loading” value with male C57BL/6J mice (2 g/kg glucose 1 hr later, from 30 min after loading) is reported as “remained low”. In addition, the blood ornithine/citrulline ratio entry in assay [1] is recorded as “decreased”. Further, the “blood FGF21 concentration” value in the assay with FGF21 was “increase in the blood FGF21 concentration was confirmed”. Besides, the “blood glucose level after insulin (insulin sensitivity improving effect), ITT” value in the assay with male KK-Ay mice [2] is “significant decrease in blood glucose”. The “blood acetyl-L-carnitine concentration” value in the assay on acetyl-L-carnitine is reported as “increase in the blood acetyl-L-carnitine concentration was observed”. For the same sequence, the “blood FD-4 concentration” value with male KK-Ay mice [3] (1 hr after oral FD-4 (300 mg/kg)) and in the assay on male KK-Ay mice [3] (2 hr after oral FD-4 (300 mg/kg)) was “suppression of an increase in the blood FD-4 concentration was observed” each time.
